Reference: ChEMBL document CHEMBL1146587, “Purification, structure determination, and antimicrobial activity of neutramycins B-G” (2003)
In brackets after ≈: the same amount, converted by molar mass.

System: Staphylococcus aureus
Assay: Antibacterial activity against Staphylococcus aureus ATCC 6538P after 18 hrs by broth microdilution method
Type: functional

## CO[C@@H]1[C@H](O)[C@@H](C)O[C@@H](OC[C@H]2[C@@H]3O[C@@H]3/C=C/C(=O)[C@H](C)CC[C@H](O[C@@H]3O[C@H](C)C[C@H](O)[C@H]3O)[C@@H](C)/C=C/C(=O)O[C@@H]2C)[C@@H]1OC [NEUTRAMYCIN E]
  MIC: 32 µg/mL (≈ 48.7 µM)
